From patent US20250304620A1, “ANTIMICROBIAL PEPTIDE AND APPLICATION THEREOF” (priority 2023, published 2025)
Values after ≈ are worked out from the molar mass of the structure shown. Marks after values point to notes of the source that are not given here. Non-standard residues stand in square brackets, D forms with d. Residues, ends and D or L forms follow the SMILES beside them. d2Nal = N[C@H](Cc1ccc2ccccc2c1)C(=O)O; d(hLeu) = CC(C)CC[C@@H](N)C(=O)O; dNle = CCCC[C@@H](N)C(=O)O; dNva = CCC[C@@H](N)C(=O)O

Columns and labels:
[1] = system: Escherichia coli ATCC 25922; assay: Oral formulations on mice with systemic bacterial infection; assay type: in vivo, ICR mice; conditions: three times a day for 7 days; for Number of mice that died on each day after infection: day 4 / Number of mice that died on each day after infection: day 5 / Number of mice that died on each day after infection: day 6 / Number of mice that died on each day after infection: day 7 / Number of mice that died on each day after infection: day 8 / Average survival times (Days): n = 10; for Average survival times (Days): observed for 14 d; for survival time of mice infected with Escherichia coli: gavage, observed 14 d
In short: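 Survival time and deaths were logged over a 14 d observation after oral gavage dosing (by body weight, thrice daily, 7 days, starting right after infection). Model: mixed-sex ICR mice, n=10 per group, intraperitoneal injection of E. coli ATCC 25922 suspension (0.2 mL, 1×10^7 CFU/mL).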

[2] = system: Staphylococcus aureus (NRS 384); assay: microbe, parasite or virus in culture; assay type: cell-based; conditions: NRS 384
In short: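 MICs were read against S. aureus strain NRS 384 using twofold serial dilution by CLSI microdilution rules. Levofloxacin and Cbf-K16 were the reference controls, and the test was repeated 5 times in parallel.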

Enterococcus ATCC 29212 = assay type: cell-based
In short: (§1)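 CLSI microdilution, serial 2-fold dilutions; MIC read-out; n = 5 parallel repeats.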

[3] = system: Trichophyton ATCC MYA-4438; assay type: cell-based
In short: as §1

[4] = system: Escherichia coli ATCC 25922; assay type: cell-based
In short: as §1

[5] = system: Candida tropicalis ATCC 750; assay type: cell-based
In short: as §1

[6] = system: Staphylococcus aureus (NRS 384); conditions: NRS 384, 3 h
Experimental: Trypsin (250 U/mg, pH=8.0) and AMPs (LV-1 to LV-30) were mixed in a ratio of 1:10 (w/w) and added to a reaction buffer (0.2 M sodium phosphate, 1 mM CaCl2), pH 7.5), and then incubated at 37° C. for 3 h.

CCCC[C@@H](NC(=O)[C@@H](CCCCN)NC(=O)[C@@H](CCCNC(=N)N)NC(C)=O)C(=O)N[C@H](CCCC)C(=O)N[C@H](Cc1ccc2ccccc2c1)C(=O)N[C@H](CCCNC(=N)N)C(=O)N[C@H](CCCC)C(=O)N[C@H](CCCCN)C(=O)N[C@H](Cc1ccc2ccccc2c1)C(=O)N[C@H](CCCNC(=N)N)C(=O)N[C@H](CCCCN)C(N)=O [LV-12] (Ac-[dR][dK][dNle][dNle][d2Nal][dR][dNle][dK][d2Nal][dR][dK]-NH2)
Number of mice that died on each day after infection: day 4 ([1]; 0.2 mg/kg gavage): 1 Mouse
Number of mice that died on each day after infection: day 5 ([1]; 0.2 mg/kg gavage): 2 Mouse
Number of mice that died on each day after infection: day 6 ([1]; 0.2 mg/kg gavage): 2 Mouse
Number of mice that died on each day after infection: day 7 ([1]; 0.2 mg/kg gavage): 1 Mouse
Number of mice that died on each day after infection: day 8 ([1]; 0.2 mg/kg gavage): 0 Mouse
Average survival times (Days) ([1]; 0.2 mg/kg gavage): 8.9** Days
Number of mice that died on each day after infection: day 4 ([1]; 1 mg/kg gavage): 0 Mouse
Number of mice that died on each day after infection: day 5 ([1]; 1 mg/kg gavage): 1 Mouse
Number of mice that died on each day after infection: day 6 ([1]; 1 mg/kg gavage): 0 Mouse
Number of mice that died on each day after infection: day 7 ([1]; 1 mg/kg gavage): 2 Mouse
Number of mice that died on each day after infection: day 8 ([1]; 1 mg/kg gavage): 1 Mouse
Average survival times (Days) ([1]; 1 mg/kg gavage): 11.1**** Days
Number of mice that died on each day after infection: day 4 ([1]; 5 mg/kg gavage): 0 Mouse
Number of mice that died on each day after infection: day 5 ([1]; 5 mg/kg gavage): 2 Mouse
Number of mice that died on each day after infection: day 6 ([1]; 5 mg/kg gavage): 1 Mouse
Number of mice that died on each day after infection: day 7 ([1]; 5 mg/kg gavage): 1 Mouse
Number of mice that died on each day after infection: day 8 ([1]; 5 mg/kg gavage): 0 Mouse
Average survival times (Days) ([1]; 5 mg/kg gavage): 10.7*** Days
survival time of mice infected with Escherichia coli [1]: superior to those of the Levofloxacin group
MIC against Staphylococcus aureus (NRS 384) [2]: 1 µg/mL (≈ 0.607 µM)
MIC Enterococcus ATCC 29212 (Enterococcus ATCC 29212): 4 µg/mL (≈ 2.43 µM)
MIC Trichophyton ATCC MYA-4438 [3]: 16 µg/mL (≈ 9.72 µM)
MIC Escherichia coli ATCC 25922 [4]: 1 µg/mL (≈ 0.607 µM)
MIC Candida tropicalis ATCC 750 [5]: 8 µg/mL (≈ 4.86 µM)
Trypsin MIC [6]: 1 µg/mL

CCC[C@@H](NC(=O)[C@@H](CCCCN)NC(=O)[C@@H](CCCNC(=N)N)NC(C)=O)C(=O)N[C@H](CCC)C(=O)N[C@H](Cc1ccc2ccccc2c1)C(=O)N[C@H](CCCNC(=N)N)C(=O)N[C@H](CCC)C(=O)N[C@H](CCCCN)C(=O)N[C@H](Cc1ccc2ccccc2c1)C(=O)N[C@H](CCCNC(=N)N)C(=O)N[C@H](CCCCN)C(N)=O [LV-13] (Ac-[dR][dK][dNva][dNva][d2Nal][dR][dNva][dK][d2Nal][dR][dK]-NH2)
Number of mice that died on each day after infection: day 4 ([1]; 1 mg/kg gavage): 3 Mouse
Number of mice that died on each day after infection: day 5 ([1]; 1 mg/kg gavage): 1 Mouse
Number of mice that died on each day after infection: day 6 ([1]; 1 mg/kg gavage): 1 Mouse
Number of mice that died on each day after infection: day 7 ([1]; 1 mg/kg gavage): 0 Mouse
Number of mice that died on each day after infection: day 8 ([1]; 1 mg/kg gavage): 0 Mouse
Average survival times (Days) ([1]; 1 mg/kg gavage): 9.3** Days
MIC against Staphylococcus aureus (NRS 384) [2]: 1 µg/mL (≈ 0.623 µM)
MIC Enterococcus ATCC 29212 (Enterococcus ATCC 29212): 8 µg/mL (≈ 4.99 µM)
MIC Trichophyton ATCC MYA-4438 [3]: 4 µg/mL (≈ 2.49 µM)
MIC Escherichia coli ATCC 25922 [4]: 2 µg/mL (≈ 1.25 µM)
MIC Candida tropicalis ATCC 750 [5]: 4 µg/mL (≈ 2.49 µM)
Trypsin MIC [6]: 1 µg/mL

CC(=O)N[C@H](CCCNC(=N)N)C(=O)N[C@H](CCCCN)C(=O)N[C@H](CCC(C)C)C(=O)N[C@H](CCC(C)C)C(=O)N[C@H](Cc1ccc2ccccc2c1)C(=O)N[C@H](CCCNC(=N)N)C(=O)N[C@H](CCC(C)C)C(=O)N[C@H](CCCCN)C(=O)N[C@H](Cc1ccc2ccccc2c1)C(=O)N[C@H](CCCNC(=N)N)C(=O)N[C@H](CCCCN)C(N)=O [LV-14] (Ac-[dR][dK][d(hLeu)][d(hLeu)][d2Nal][dR][d(hLeu)][dK][d2Nal][dR][dK]-NH2)
Number of mice that died on each day after infection: day 4 ([1]; 1 mg/kg gavage): 1 Mouse
Number of mice that died on each day after infection: day 5 ([1]; 1 mg/kg gavage): 2 Mouse
Number of mice that died on each day after infection: day 6 ([1]; 1 mg/kg gavage): 1 Mouse
Number of mice that died on each day after infection: day 7 ([1]; 1 mg/kg gavage): 0 Mouse
Number of mice that died on each day after infection: day 8 ([1]; 1 mg/kg gavage): 1 Mouse
Average survival times (Days) ([1]; 1 mg/kg gavage): 9.8** Days
MIC against Staphylococcus aureus (NRS 384) [2]: 1 µg/mL (≈ 0.592 µM)
MIC Enterococcus ATCC 29212 (Enterococcus ATCC 29212): 4 µg/mL (≈ 2.37 µM)
MIC Trichophyton ATCC MYA-4438 [3]: 8 µg/mL (≈ 4.74 µM)
MIC Escherichia coli ATCC 25922 [4]: 2 µg/mL (≈ 1.18 µM)
MIC Candida tropicalis ATCC 750 [5]: 8 µg/mL (≈ 4.74 µM)
Trypsin MIC [6]: 1 µg/mL

CC(=O)N[C@H](CCCNC(=N)N)C(=O)N[C@H](CCCCN)C(=O)N[C@H](C)C(=O)N[C@H](C)C(=O)N[C@H](Cc1ccc2ccccc2c1)C(=O)N[C@H](CCCNC(=N)N)C(=O)N[C@H](C)C(=O)N[C@H](CCCCN)C(=O)N[C@H](Cc1ccc2ccccc2c1)C(=O)N[C@H](CCCNC(=N)N)C(=O)N[C@H](CCCCN)C(N)=O [LV-15] (Ac-[dR][dK][dA][dA][d2Nal][dR][dA][dK][d2Nal][dR][dK]-NH2)
Number of mice that died on each day after infection: day 4 ([1]; 1 mg/kg gavage): 1 Mouse
Number of mice that died on each day after infection: day 5 ([1]; 1 mg/kg gavage): 3 Mouse
Number of mice that died on each day after infection: day 6 ([1]; 1 mg/kg gavage): 0 Mouse
Number of mice that died on each day after infection: day 7 ([1]; 1 mg/kg gavage): 1 Mouse
Number of mice that died on each day after infection: day 8 ([1]; 1 mg/kg gavage): 0 Mouse
Average survival times (Days) ([1]; 1 mg/kg gavage): 9.6** Days
MIC against Staphylococcus aureus (NRS 384) [2]: 1 µg/mL (≈ 0.658 µM)
MIC Enterococcus ATCC 29212 (Enterococcus ATCC 29212): 4 µg/mL (≈ 2.63 µM)
MIC Trichophyton ATCC MYA-4438 [3]: 8 µg/mL (≈ 5.26 µM)
MIC Escherichia coli ATCC 25922 [4]: 2 µg/mL (≈ 1.32 µM)
MIC Candida tropicalis ATCC 750 [5]: 8 µg/mL (≈ 5.26 µM)
Trypsin MIC [6]: 1 µg/mL

CC(=O)N[C@H](CCCNC(=N)N)C(=O)N[C@H](CCCCN)C(=O)N[C@@H](C(=O)N[C@@H](C(=O)N[C@H](Cc1ccc2ccccc2c1)C(=O)N[C@H](CCCNC(=N)N)C(=O)N[C@@H](C(=O)N[C@H](CCCCN)C(=O)N[C@H](Cc1ccc2ccccc2c1)C(=O)N[C@H](CCCNC(=N)N)C(=O)N[C@H](CCCCN)C(N)=O)C(C)C)C(C)C)C(C)C [LV-16] (Ac-[dR][dK][dV][dV][d2Nal][dR][dV][dK][d2Nal][dR][dK]-NH2)
Number of mice that died on each day after infection: day 4 ([1]; 1 mg/kg gavage): 1 Mouse
Number of mice that died on each day after infection: day 5 ([1]; 1 mg/kg gavage): 1 Mouse
Number of mice that died on each day after infection: day 6 ([1]; 1 mg/kg gavage): 1 Mouse
Number of mice that died on each day after infection: day 7 ([1]; 1 mg/kg gavage): 0 Mouse
Number of mice that died on each day after infection: day 8 ([1]; 1 mg/kg gavage): 2 Mouse
Average survival times (Days) ([1]; 1 mg/kg gavage): 10.1*** Days
MIC against Staphylococcus aureus (NRS 384) [2]: 1 µg/mL (≈ 0.623 µM)
MIC Enterococcus ATCC 29212 (Enterococcus ATCC 29212): 2 µg/mL (≈ 1.25 µM)
MIC Trichophyton ATCC MYA-4438 [3]: 8 µg/mL (≈ 4.99 µM)
MIC Escherichia coli ATCC 25922 [4]: 1 µg/mL (≈ 0.623 µM)
MIC Candida tropicalis ATCC 750 [5]: 4 µg/mL (≈ 2.49 µM)
Trypsin MIC [6]: 1 µg/mL

CC(=O)N[C@H](CCCCN)C(=O)N[C@H](CCCCN)C(=O)N[C@H](CC(C)C)C(=O)N[C@H](CC(C)C)C(=O)N[C@H](Cc1ccc2ccccc2c1)C(=O)N[C@H](CCCCN)C(=O)N[C@H](CC(C)C)C(=O)N[C@H](CCCCN)C(=O)N[C@H](Cc1ccc2ccccc2c1)C(=O)N[C@H](CCCCN)C(=O)N[C@H](CCCCN)C(N)=O [LV-17] (Ac-[dK][dK][dL][dL][d2Nal][dK][dL][dK][d2Nal][dK][dK]-NH2)
Number of mice that died on each day after infection: day 4 ([1]; 0.2 mg/kg gavage): 1 Mouse
Number of mice that died on each day after infection: day 5 ([1]; 0.2 mg/kg gavage): 2 Mouse
Number of mice that died on each day after infection: day 6 ([1]; 0.2 mg/kg gavage): 1 Mouse
Number of mice that died on each day after infection: day 7 ([1]; 0.2 mg/kg gavage): 1 Mouse
Number of mice that died on each day after infection: day 8 ([1]; 0.2 mg/kg gavage): 2 Mouse
Average survival times (Days) ([1]; 0.2 mg/kg gavage): 8.5** Days
Number of mice that died on each day after infection: day 4 ([1]; 1 mg/kg gavage): 1 Mouse
Number of mice that died on each day after infection: day 5 ([1]; 1 mg/kg gavage): 0 Mouse
Number of mice that died on each day after infection: day 6 ([1]; 1 mg/kg gavage): 2 Mouse
Number of mice that died on each day after infection: day 7 ([1]; 1 mg/kg gavage): 1 Mouse
Number of mice that died on each day after infection: day 8 ([1]; 1 mg/kg gavage): 0 Mouse
Average survival times (Days) ([1]; 1 mg/kg gavage): 10.7*** Days
Number of mice that died on each day after infection: day 4 ([1]; 5 mg/kg gavage): 2 Mouse
Number of mice that died on each day after infection: day 5 ([1]; 5 mg/kg gavage): 1 Mouse
Number of mice that died on each day after infection: day 6 ([1]; 5 mg/kg gavage): 0 Mouse
Number of mice that died on each day after infection: day 7 ([1]; 5 mg/kg gavage): 1 Mouse
Number of mice that died on each day after infection: day 8 ([1]; 5 mg/kg gavage): 1 Mouse
Average survival times (Days) ([1]; 5 mg/kg gavage): 9.8** Days
survival time of mice infected with Escherichia coli [1]: superior to those of the Levofloxacin group
MIC against Staphylococcus aureus (NRS 384) [2]: 1 µg/mL (≈ 0.64 µM)
MIC Enterococcus ATCC 29212 (Enterococcus ATCC 29212): 2 µg/mL (≈ 1.28 µM)
MIC Trichophyton ATCC MYA-4438 [3]: 8 µg/mL (≈ 5.12 µM)
MIC Escherichia coli ATCC 25922 [4]: 1 µg/mL (≈ 0.64 µM)
MIC Candida tropicalis ATCC 750 [5]: 8 µg/mL (≈ 5.12 µM)
Trypsin MIC [6]: 1 µg/mL
